# Laboratory results taken from publication PMC4742234, “Screening of Drug Metabolizing Enzymes for the Ginsenoside Compound K In Vitro: An Efficient Anti-Cancer Substance Originating from Panax Ginseng” (PLoS ONE, 2016).
# “Also recorded” adds a separate entry of the source.
# Experiments:
# Type in all cases: in vitro ADME
# [1] = biological target: T1, CYP2D6 (Homo sapiens, UniProt P10635); experiment: Inhibition of CYP2D6 (metoprolol α-hydroxylation) by CK in HLMs
# T1 construct: tissue Cypex Ltd. (U.K.); host or cells: pooled human liver microsomes
# T1 sequence (P10635 whole entry): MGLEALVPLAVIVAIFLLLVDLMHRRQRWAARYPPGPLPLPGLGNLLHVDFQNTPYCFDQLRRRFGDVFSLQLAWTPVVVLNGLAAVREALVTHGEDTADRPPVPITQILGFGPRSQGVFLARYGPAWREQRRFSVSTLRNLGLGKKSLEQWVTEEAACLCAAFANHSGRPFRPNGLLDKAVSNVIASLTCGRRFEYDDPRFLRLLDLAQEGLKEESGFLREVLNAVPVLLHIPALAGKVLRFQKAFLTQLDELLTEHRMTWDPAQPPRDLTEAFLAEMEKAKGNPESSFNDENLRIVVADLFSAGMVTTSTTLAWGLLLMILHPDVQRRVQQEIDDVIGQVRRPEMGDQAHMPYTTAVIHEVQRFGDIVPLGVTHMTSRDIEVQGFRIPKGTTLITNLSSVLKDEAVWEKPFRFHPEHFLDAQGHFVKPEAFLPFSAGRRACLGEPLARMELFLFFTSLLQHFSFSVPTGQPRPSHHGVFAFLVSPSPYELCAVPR
# Procedure: (§1) The method was conducted according to our previous study with some modifications. The CYP isoform-specific probe reactions used were phenacetin O-deethylation (for CYP1A2), coumarin 7-hydroxylation (for CYP2A6), tolbutamide 4-hydroxylation (for CYP2C9), metoprolol α-hydroxylation (for CYP2D6), chlorzoxazone 6-hydroxylation (for CYP2E1),S-Mephenytoin 4-hydroxylation (for CYP2C19), and midazolam 1-hydroxylation (for CYP3A4). The kinetic study of CK was conducted with HLMs. A 0.2 mL incubation mixture that consisted of CK (as a substrate), the HLMs (0.5 mg/mL) or CYP isoforms (10 pmol), and 0.1 M sodium phosphate buffer (pH 7.4) was pre-warmed for 5 min at 37°C. The reaction was initiated by the addition of 1 mg/mL triphosphopyridine nucleotide (NADPH). All the reagents were dissolved in methanol, and the final solvent concentration in all incubations (including the controls) was 1%. The final incubations were performed in a shaking water bath (37°C) for 30 min. The reactions were stopped by adding 0.2 mL ice-cold acetonitrile, which contains irbesartan (114.9 ng/mL) as the internal standard. The samples were vortexed for 5 min. After centrifugation (12000×g for 10 min), the supernatants were transferred, and aliquots of 20 μL were injected into the HPLC-MS/MS system for analysis.
# (§2) CK (10–100 μM) and a single CYP isoform-specific substrate (with a concentration similar to its corresponding Kmvalue) were used to determine the inhibitory effect of CK on specific CYP isoforms as described in detail previously. Substrates including phenacetin, coumarin, tolbutamide, metoprolol, chlorzoxazone, S-Mephenytoin, and midazolam were used at concentrations of 10, 5, 100, 7.5, 40, 100, and 5 μM, respectively. All incubation conditions were the same as mentioned above. The inhibitory effects on the CYP isoforms were investigated individually by incubating the HLMs in the absence or presence of CK. […]
# [2] = biological target: CYP2C9 (Homo sapiens, UniProt P11712); experiment: Inhibition of CYP2C9 (tolbutamide 4-hydroxylation) by CK in HLMs; parameters: tissue Cypex Ltd. (U.K.); host or cells: pooled human liver microsomes
# Sequence of CYP2C9 (P11712 whole entry): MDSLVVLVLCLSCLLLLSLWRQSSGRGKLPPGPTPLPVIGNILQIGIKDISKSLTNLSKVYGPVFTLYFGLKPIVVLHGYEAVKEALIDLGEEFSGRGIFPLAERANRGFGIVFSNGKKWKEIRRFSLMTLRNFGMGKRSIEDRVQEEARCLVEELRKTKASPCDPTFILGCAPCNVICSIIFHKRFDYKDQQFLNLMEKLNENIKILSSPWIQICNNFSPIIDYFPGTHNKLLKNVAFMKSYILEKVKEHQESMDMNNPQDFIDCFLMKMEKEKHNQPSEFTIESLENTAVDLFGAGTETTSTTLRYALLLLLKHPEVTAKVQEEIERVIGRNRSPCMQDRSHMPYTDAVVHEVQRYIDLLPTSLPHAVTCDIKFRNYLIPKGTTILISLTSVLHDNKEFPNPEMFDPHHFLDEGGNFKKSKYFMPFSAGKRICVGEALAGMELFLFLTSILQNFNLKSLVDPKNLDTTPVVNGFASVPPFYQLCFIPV
# Procedure: as §1
# CK (10–100 μM) and a single CYP isoform-specific substrate (with a concentration similar to its corresponding Kmvalue) were used to determine the inhibitory effect of CK on specific CYP isoforms as described in detail previously. Substrates including phenacetin, coumarin, tolbutamide, metoprolol, chlorzoxazone, S-Mephenytoin, and midazolam were used at concentrations of 10, 5, 100, 7.5, 40, 100, and 5 μM, respectively. All incubation conditions were the same as mentioned above. The inhibitory effects on the CYP isoforms were investigated individually by incubating the HLMs in the absence or presence of CK. The incubation solution with the solvent that was used to dissolve CK was regarded as the negative control, and the solutions containing the specific inhibitors mentioned above were considered the positive controls.
# Therefore, Dixon plots for the inhibition of CYP2C9 and CYP3A4 were determined by incubating the substrate probe at multiple concentrations with or without the test inhibitor with the HLMs and cofactors. The inhibition data obtained from the pilot experiments were used as a guide to generate the appropriate probe substrate and test inhibitor concentrations for the determination of the Ki values for each CYP isoform. The isoform-specific probe substrate concentrations used were 25–200 μM tolbutamide for CYP2C9 and 5–50 μM midazolam for CYP3A4. The CK concentrations used were 10–100 μM.
# Therefore, we used S/V versus [I] plots to determine the Ki’ values for the inhibition of CYP2C9 and CYP3A4. When Ki>Ki’, the intersection was above the [I] axis in the plot of S/V against [I] and below it in the Dixon plot; the opposite was true if Ki<Ki’. In the special case where Ki = Ki’ (simple non-competitive inhibition), the intersections occurred on the [I] axis in both plots. The asymptotic cases of competitive and uncompetitive inhibition can be generated by inserting the conditions Ki’ to ∞ for competitive inhibition, or Ki to ∞ for uncompetitive inhibition.
# As described in detail previously, to determine the major enzymes responsible for the CK metabolism in HLMs, the metabolic clearance rate of the incubation solution without any specific inhibitor for CK was considered as 100%. The effects of the specific inhibitors on the metabolic clearance rate of CK were evaluated with SPSS one-way analysis of variance (SPSS Inc., Chicago, IL, USA). P<0.05 was considered significant in all cases. The apparent kinetic parameters of CK (Km and Vmax) were determined by fitting the Michaelis–Menten equation using the GraphPad Prism Enzyme Kinetic 5 Demo software (GraphPad Co. Ltd, San Diego, CA, USA). […]
# [3] = biological target: T2, CYP2E1 (Homo sapiens, UniProt P05181); experiment: Inhibition of CYP2E1 (chlorzoxazone 6-hydroxylation) by CK in HLMs
# T2 construct: tissue Cypex Ltd. (U.K.); host or cells: pooled human liver microsomes
# T2 sequence (P05181 whole entry): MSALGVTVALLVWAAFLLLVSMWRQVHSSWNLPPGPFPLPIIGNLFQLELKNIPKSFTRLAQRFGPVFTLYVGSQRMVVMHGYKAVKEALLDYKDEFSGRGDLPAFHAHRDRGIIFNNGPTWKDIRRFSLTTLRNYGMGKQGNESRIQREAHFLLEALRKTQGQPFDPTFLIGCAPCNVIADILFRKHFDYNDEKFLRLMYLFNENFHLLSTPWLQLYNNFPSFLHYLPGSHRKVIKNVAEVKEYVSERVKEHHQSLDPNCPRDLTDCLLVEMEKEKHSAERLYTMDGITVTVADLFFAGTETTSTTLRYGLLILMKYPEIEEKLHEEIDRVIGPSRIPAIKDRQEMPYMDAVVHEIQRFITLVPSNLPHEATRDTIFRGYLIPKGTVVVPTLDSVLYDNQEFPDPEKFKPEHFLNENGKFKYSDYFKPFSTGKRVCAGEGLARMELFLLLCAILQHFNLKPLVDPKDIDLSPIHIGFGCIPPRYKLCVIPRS
# Procedure: as §1, §2
# [4] = classified by IC50 according to Kong et al
# [5] = CYP2C9 in HLMs, sulfaphenazole values ref 15, 16
structure (smiles),measurement,setting,value
"CC(C)=CCC[C@](C)(OC1O[C@H](CO)[C@@H](O)[C@H](O)[C@H]1O)[C@H]1CC[C@]2(C)[C@@H]1[C@H](O)C[C@@H]1[C@@]3(C)CC[C@H](O)C(C)(C)[C@@H]3CC[C@]12C (stereo partly drawn) [CK, 20-O-β-(D-glucopyranosyl)-20(S)-protopanaxadiol]",inhibitory effect on the activity of CYP2D6,"[1]; HLMs, CK 10–100 μM",minimal; also recorded: negligible
same,IC50,"[1]; HLMs, metoprolol 7.5 μM, CK 10–100 μM",> 100 µM
same,inhibitor potency class for CYP2D6,[1]; [4],"weak (weak, if IC50≥100 μg/mL or ≥50 μM)"
same,IC50 of CK higher than that of sulfaphenazole,[2]; [5],11-53 fold
same,Ki of CK higher than that of sulfaphenazole,[2]; [5],49 fold
same,type of inhibition of CYP2C9,"[2]; HLMs, Dixon and S/V versus [I] plots",mixed type
same,IC50,"[2]; HLMs, tolbutamide 4-hydroxylation, tolbutamide 100 μM, CK 10–100 μM",16 µM
same,Ki,"[2]; HLMs, tolbutamide 25–200 μM, secondary plot of Lineweaver–Burk slopes",14.9 µM
same,inhibitor potency class for CYP2C9,[2]; [4],"moderate (moderate, if IC50 20–100 μg/mL or 10–50 μM)"
same,inhibitory effect on the activity of CYP2E1,"[3]; HLMs, CK 10–100 μM",minimal; also recorded: negligible
same,IC50,"[3]; HLMs, chlorzoxazone 40 μM, CK 10–100 μM",> 100 µM
same,inhibitor potency class for CYP2E1,[3]; [4],"weak (weak, if IC50≥100 μg/mL or ≥50 μM)"
